Test results published in patent US4570005A, “Process for the preparation of 2-arylpropyl ether or thioether derivatives” (priority 1980, dated 1986).
Where two headings read alike, the source gives them in different places.

Assays:
diamond back moth = experiment: Test 4: Effect on Diamond Back Moth; type: in vivo; details: Plutella
Experimental: (§1) To a mixture of 20 parts of the compound of the present invention and 20 parts of Sorpol SM-200 (registered tradename for the product supplied by Toho Chemical Industrial Co., Ltd.) was added 60 parts of xylol, and the mixture was suffciently blended. The obtained emulsifiable concentrate was diluted at a predetermined concentration with distilled water, and the obtained dilution was used.
Cabbage leaves were spread in a plastic cup, and 10 third-instar larvae of diamond back moth were set free in the cup.
A chemical dilution having a concentration of 100 or 20 ppm, prepared in the same manner as described in Test 1, was applied from an applicator at a rate of 3 ml per cup.
After scattering of the chemical dilution, the cup was covered, and after 24 hours, the numbers of killed and living larvae were counted and the mortality was calculated. The test was made on three cups and the average value was calculated.

[1] = Test 9: Toxicity Test (acute oral toxicity, mice); details: mouse, in vivo, po
Experimental: A predetermined amount of a solution or suspension of a test compound in corn oil was orally administered to male mice having a body weight of 19 to 23 g (0.2 ml per 10 g of the body weight). After 7 days, the number of killed mice was counted and the influences on the mice were examined.

tobacco cutworm [2] = experiment: Test 1: Effect on Tobacco Cutworm (leaf immersion), mortality after 24 hours; type: in vivo; details: second-instar larvae, 25° C
Experimental: as §1
An emulsifiable concentrate of a test compound prepared according to the method described in Formulation Example 1 was diluted to a concentration of 100 or 20 ppm. Sweet-potato leaves were immersed in the dilution for 10 seconds, air-dried and placed in a plastic cup having a diameter of 10 cm. Then second-instar larvae of tobacco cutworm were set free in the cup. The cup was allowed to stand still in a thermostat chamber maintained at 25° C. After 24 hours, the numbers of killed and living larvae were counted and the mortality was calculated. The obtained result was expressed by an average value obtained from the mortality calculated in three test cups.

[3] = test system: resistant green rice leafhopper (collected at Nakagawara); experiment: Test 3: Effect on Resistant Green Rice Leafhopper (collected at Nakagawara); type: in vivo, Nephotettix cincticeps Uhler (Green rice leafhopper); details: Nephotettix cincticeps, 24 h, read-out: Mortality (%), Green Rice Leafhopper Collected at Nakagawara
Experimental: as §1
(§2) Seedlings (having 2 to 3 leaves) of paddy rice were hydroponically cultured in a pot having a diameter of 5 cm. A chemical dilution having a concentration of 100 or 20 ppm, prepared in the same manner as described in Test 1, was applied with a sprayer at a rate of 3 ml per pot. The treated seedlings were air-dried and covered with a metal net cylinder, and female adults of resistant green rice leafhopper (collected at Nakagawara) and sensitive green rice leafhopper (collected at Chigasaki) were set, respectively, free in the pot at a density of 10 adults per pot. After 24 hours, the numbers of killed and living adults were counted and the mortality was calculated. The test was made on three pots and the average value was calculated.

[4] = test system: sensitive green rice leafhopper (collected at Chigasaki); experiment: whole plant or invertebrate; type: in vivo; details: Nephotettix cincticeps, sensitive female adults, 24 hours, read-out: Mortality (%), Green Rice Leafhopper Collected at Chigasaki
Experimental: as §1, §2

German cockroach = experiment: Test 7: Effect on German Cockroach; type: in vivo; details: Blattella germanica, male adults, agonized and killed after 24 hours, read-out: Mortality (%)
Experimental: as §1
The bottom face of a high Petri dish having a diameter of 9 cm and a height of 9 cm was treated with 50 or 10 mg/m^2 of a test compound and the dish was air-dried. In order to prevent the adults from escaping from the dish, the inner wall of the dish was treated with butter. Then, 10 male adults of German cockroach were set free in each dish, and the dish was placed in a thermostat chamber maintained at 25° C. After 24 hours, the number of agonized and killed adults was counted. The test was made on two dishes and the average value was calculated.

tobacco cutworm [5] = experiment: Test 2: Tobacco Cutworm Larva Dipping Test, mortality after 24 hours; type: in vivo
Experimental: as §1
A dilution having a chemical concentration of 100 or 20 ppm was prepared in the same manner as described in Test 1.
Second-instar and fifth-instar larvae of tobacco cutworm were dipped in the dilution for 5 seconds, and the excessive dilution was removed by a filter paper. Then, the larvae were set free in a plastic cup and an artificial diet was supplied thereto. The cup was allowed to stand still in a thermostat chamber maintained at 25° C. After 24 hours, the numbers of the killed and living larvae were counted and the mortality was calculated. The test was made on three cups and the result was expressed by an average value.

[6] = 20 ppm, third-instar larvae, 24 hours, read-out: Mortality (%)
[7] = 100 ppm, third-instar larvae, 24 hours, read-out: Mortality (%)
[8] = 24 h, read-out: Motality (%), Fifth-Instar Larvae

Structure (SMILES) | mortality at 20 ppm (diamond back moth; [6]) [%] | mortality at 100 ppm (diamond back moth; [7]) [%] | LD50 at 168 h [1] [mg/kg] | mortality at 20 ppm (tobacco cutworm [2]) [%] | mortality at 100 ppm (tobacco cutworm [2]) [%] | mortality at 20 ppm [3] [%] | mortality at 100 ppm [3] [%] | mortality at 20 ppm [4] [%] | mortality at 100 ppm [4] [%] | further results
CCOC(C)c1ccc(C(C)(C)COCc2cccc(Oc3ccccc3)c2)cc1 (stereo not drawn) [Compound 84, 3-Phenoxybenzyl 2-[4-(1-ethoxyethyl)phenyl]-2-methylpropyl ether] | 60 | 100 | > 500 | – | – | – | – | – | – | –
CCSc1ccc(C(C)(C)COCc2cccc(Oc3ccccc3)c2)cc1 [Compound 100, 3-Phenoxybenzyl 2-(4-ethylthiophenyl)-2-methylpropyl ether] | – | – | > 500 | 80 | 100 | 95 | 100 | 80 | 100 | –
Cc1ccc2cc(C(C)(C)COCc3cccc(Oc4ccccc4)c3)ccc2c1 [Compound 71, 3-Phenoxybenzyl 2-(6-methyl-2-naphthyl)-2-methylpropyl ether] | 60 | 100 | > 500 | – | – | 100 | 100 | 100 | 100 | –
CC(C)(COCc1cccc(Oc2ccc(F)cc2)c1)c1ccc(F)c(Cl)c1 [Compound 58, 3-(4-Fluorophenoxy)benzyl 2-(3-chloro-4-fluorophenyl)-2-methylpropyl ether] | – | – | > 500 | 100 | 100 | 100 | 100 | 100 | 100 | –
CCOc1ccc(C(C)(C)COCc2cccc(Oc3ccccc3)c2)cc1OC [Compound 99, 3-Phenoxybenzyl-2-(4-ethoxy-3-methoxyphenyl)-2-methylpropyl ether] | 80 | 100 | > 500 | 100 | 100 | – | – | – | – | –
CCOc1c(C)cc(C(C)(C)COCc2cccc(Oc3ccccc3)c2)cc1C [Compound 97, 3-Phenoxybenzyl 2-(4-ethoxy-3,5-dimethylphenyl)-2-methylpropyl ether] | – | – | > 500 | 100 | 100 | 100 | 100 | 100 | 100 | –
CCOc1ccc(Oc2cccc(COCC(C)(C)c3ccc(Cl)cc3)c2)cc1 [Compound 94, 3-(4-Ethoxyphenoxy)benzyl 2-(4-chlorophenyl)-2-methylpropyl ether] | 80 | 100 | > 500 | 100 | 100 | 100 | 100 | 100 | 100 | –
Cc1ccc(C(C)(C)COCc2cccc(Oc3ccccc3)c2)cc1C [Compound 109] | – | – | > 500 | – | – | 90 | 100 | 70 | 100 | mortality at 10 mg/m2 (German cockroach; 10 mg/m^2): 100%; mortality at 50 mg/m2 (German cockroach; 50 mg/m^2): 100%
CCC(C)Oc1ccc(C(C)(C)COCc2cccc(Oc3ccccc3)c2)cc1 (stereo not drawn) [Compound 70, 3-Phenoxybenzyl 2-[4-(sec-butoxy)phenyl]-2-methylpropyl ether] | – | – | > 500 | 90 | 100 | 100 | 100 | 100 | 100 | –
CCOc1ccc(Oc2cccc(COCC(C)(C)c3ccc(OCC)cc3)c2)cc1 [Compound 101, 3-(4-Ethoxyphenoxy)benzyl 2-(4-ethoxyphenyl)-2-methylpropyl ether] | 100 | 100 | > 500 | 100 | 100 | 100 | 100 | 100 | 100 | mortality at 20 ppm (tobacco cutworm [5]; 20 ppm, fifth-instar larvae, 24 hours, read-out: Motality (%), Fifth-Instar Larvae): 100%; mortality at 20 ppm (tobacco cutworm [5]; 20 ppm, second-instar larvae, 24 hours, read-out: Motality (%), Second-Instar Larvae): 100%; mortality at 100 ppm (tobacco cutworm [5]; 100 ppm, fifth-instar larvae, 24 hours, read-out: Motality (%), Fifth-Instar Larvae): 100%; mortality at 100 ppm (tobacco cutworm [5]; 100 ppm, second-instar larvae, 24 hours, read-out: Motality (%), Second-Instar Larvae): 100%
CNC(=O)ON=C(C)SC [Comparative Compound (f), S-methyl N-(methylcarbamoyloxy)thioacetoamidate, reference compound] | – | – | 28 | – | – | – | – | – | – | mortality at 20 ppm (diamond back moth; 24 h): 0%; mortality at 100 ppm (diamond back moth; 24 h): 10%; mortality at 20 ppm (tobacco cutworm [5]; [8]): 0%; mortality at 100 ppm (tobacco cutworm [5]; [8]): 80%; mortality at 20 ppm (tobacco cutworm [5]; 24 h, read-out: Motality (%), Second-Instar Larvae): 30%
CC(C)(COCc1cccc(Oc2ccccc2)c1)c1ccc(Oc2ccccc2)cc1 [Compound 76, 3-Phenoxybenzyl 2-(4-phenoxyphenyl)-2-methylpropyl ether] | – | – | > 500 | 90 | 100 | – | – | – | – | –
CCOC(=O)c1ccc(C(C)(C)COCc2cccc(Oc3ccccc3)c2)cc1 [Compound 85, 3-Phenoxybenzyl 2-(4-ethoxycarbonylphenyl)-2-methylpropyl ether] | – | – | > 500 | 80 | 100 | 100 | 100 | 100 | 100 | –
CC(=O)c1ccc(C(C)(C)COCc2cccc(Oc3ccccc3)c2)cc1 [Compound 60, 3-Phenoxybenzyl 2-(4-acetylphenyl)-2-methylpropyl ether] | – | – | > 500 | 80 | 100 | 90 | 100 | 60 | 100 | –
CCOc1ccc(C(C)(C)COCc2cccc(Oc3ccc(Br)cc3)c2)cc1 [Compound 66, 3-(4-Bromophenoxy)benzyl 2-(4-ethoxyphenyl)-2-methylpropyl ether] | 60 | 100 | > 500 | 100 | 100 | 100 | 100 | 100 | 100 | –
CC(C)(COCc1cccc(Oc2ccccc2)c1)c1ccc(F)c(Cl)c1 [Compound 75] | – | – | > 500 | 80 | 100 | – | – | – | – | –
CC(C)(COCc1cccc(Oc2ccccc2)c1)c1ccc(OCCCl)cc1 [Compound 108, 3-Phenoxybenzyl 2-[4-(2-chloroethoxy)phenyl]-2-methylpropyl ether] | – | – | > 500 | 100 | 100 | 100 | 100 | 95 | 100 | –
